Source: paper PMC10700596 (Nature Communications, 2023)
“And” between values parts separate entries of the source, which are not always exact repeats. Equal values may be shown once.

What was measured:
Assay type in all cases: cell-based
[1] = target: 320 GPCRs (Homo sapiens, UniProt O00155)
[2] = target: 320 GPCRs (Homo sapiens, UniProt O00270)
[3] = target: 320 GPCRs (Homo sapiens, UniProt O00421)
[4] = target: 320 GPCRs (Homo sapiens, UniProt O00574)
[5] = target: 320 GPCRs (Homo sapiens, UniProt O14842)
[6] = target: 320 GPCRs (Homo sapiens, UniProt O15218)
[7] = target: 320 GPCRs (Homo sapiens, UniProt O15303)
[8] = target: 320 GPCRs (Homo sapiens, UniProt P08173)
[9] = target: 320 GPCRs (Homo sapiens, UniProt P14416)
[10] = target: 320 GPCRs (Homo sapiens, UniProt P18825)
[11] = target: 320 GPCRs (Homo sapiens, UniProt P25021)
[12] = target: 320 GPCRs (Homo sapiens, UniProt P25090)
[13] = target: 320 GPCRs (Homo sapiens, UniProt P32238)
[14] = target: 320 GPCRs (Homo sapiens, UniProt P32239)
[15] = target: 320 GPCRs (Homo sapiens, UniProt P34972)
[16] = target: 320 GPCRs (Homo sapiens, UniProt P35348)
[17] = target: 320 GPCRs (Homo sapiens, UniProt P37288)
[18] = target: 320 GPCRs (Homo sapiens, UniProt P41594)
[19] = target: 320 GPCRs (Homo sapiens, UniProt P41968)
[20] = target: 320 GPCRs (Homo sapiens, UniProt P43088)
[21] = target: 320 GPCRs (Homo sapiens, UniProt P43115)
[22] = target: 320 GPCRs (Homo sapiens, UniProt P43116)
[23] = target: 320 GPCRs (Homo sapiens, UniProt P49019)
[24] = target: 320 GPCRs (Homo sapiens, UniProt P49685)
[25] = target: 320 GPCRs (Homo sapiens, UniProt Q13258)
[26] = target: 320 GPCRs (Homo sapiens, UniProt Q13304)
[27] = target: 320 GPCRs (Homo sapiens, UniProt Q14416)
[28] = target: 320 GPCRs (Homo sapiens, UniProt Q7Z7M1)
[29] = target: 320 GPCRs (Homo sapiens, UniProt Q86SQ4)
[30] = target: 320 GPCRs (Homo sapiens, UniProt Q8IZF5)
[31] = target: 320 GPCRs (Homo sapiens, UniProt Q8TDV0)
[32] = target: 320 GPCRs (Homo sapiens, UniProt Q8TDV2)
[33] = target: 320 GPCRs (Homo sapiens, UniProt Q969N4)
[34] = target: 320 GPCRs (Homo sapiens, UniProt Q96LB0)
[35] = target: 320 GPCRs (Homo sapiens, UniProt Q96RI9)
[36] = target: 320 GPCRs (Homo sapiens, UniProt Q99677)
[37] = target: 320 GPCRs (Homo sapiens, UniProt Q9BZJ7)
[38] = target: 320 GPCRs (Homo sapiens, UniProt Q9HBX9)
[39] = target: 320 GPCRs (Homo sapiens, UniProt Q9NQS5)
[40] = target: 320 GPCRs (Homo sapiens, UniProt Q9NS66)
[41] = target: 320 GPCRs (Homo sapiens, UniProt Q9NS67)
[42] = target: 320 GPCRs (Homo sapiens, UniProt Q9UJ42)
[43] = system: 320 GPCRs

Chain of 320 GPCRs (Homo sapiens, UniProt Q9NS67) (Q9NS67 whole entry): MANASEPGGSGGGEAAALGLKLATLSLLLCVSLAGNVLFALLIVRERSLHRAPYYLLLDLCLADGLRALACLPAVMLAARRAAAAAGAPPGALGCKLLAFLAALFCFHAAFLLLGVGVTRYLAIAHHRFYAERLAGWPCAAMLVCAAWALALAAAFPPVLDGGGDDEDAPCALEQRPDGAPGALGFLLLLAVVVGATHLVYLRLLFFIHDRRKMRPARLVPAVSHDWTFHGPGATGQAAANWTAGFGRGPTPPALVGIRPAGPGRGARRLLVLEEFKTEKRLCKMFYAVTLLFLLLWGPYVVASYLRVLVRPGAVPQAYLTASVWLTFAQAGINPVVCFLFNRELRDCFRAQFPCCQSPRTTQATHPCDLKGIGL
Chain of 320 GPCRs (Homo sapiens, UniProt Q99677) (Q99677 whole entry): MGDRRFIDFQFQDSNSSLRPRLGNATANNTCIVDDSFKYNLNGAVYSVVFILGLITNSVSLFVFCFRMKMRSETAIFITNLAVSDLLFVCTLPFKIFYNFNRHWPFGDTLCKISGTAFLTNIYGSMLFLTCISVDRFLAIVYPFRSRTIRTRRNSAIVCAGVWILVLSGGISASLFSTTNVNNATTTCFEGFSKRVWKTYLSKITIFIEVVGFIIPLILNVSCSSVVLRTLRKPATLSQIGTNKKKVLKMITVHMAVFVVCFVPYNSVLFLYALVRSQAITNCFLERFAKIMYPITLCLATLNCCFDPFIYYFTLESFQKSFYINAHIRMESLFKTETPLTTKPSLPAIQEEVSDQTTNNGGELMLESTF
Chain of 320 GPCRs (Homo sapiens, UniProt P08173) (P08173 whole entry): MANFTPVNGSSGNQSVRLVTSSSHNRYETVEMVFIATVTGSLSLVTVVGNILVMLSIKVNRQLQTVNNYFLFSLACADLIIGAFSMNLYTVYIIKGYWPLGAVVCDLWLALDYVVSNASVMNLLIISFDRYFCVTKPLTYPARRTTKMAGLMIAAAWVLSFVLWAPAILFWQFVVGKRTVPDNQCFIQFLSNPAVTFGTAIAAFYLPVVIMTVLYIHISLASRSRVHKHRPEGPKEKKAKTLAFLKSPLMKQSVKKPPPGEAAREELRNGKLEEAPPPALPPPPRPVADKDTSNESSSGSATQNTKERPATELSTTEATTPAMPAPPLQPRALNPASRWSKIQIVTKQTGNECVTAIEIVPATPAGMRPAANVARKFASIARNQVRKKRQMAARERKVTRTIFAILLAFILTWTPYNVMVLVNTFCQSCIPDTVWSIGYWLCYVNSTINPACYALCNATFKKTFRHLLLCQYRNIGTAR
Chain of 320 GPCRs (Homo sapiens, UniProt Q86SQ4) (Q86SQ4 38-1221): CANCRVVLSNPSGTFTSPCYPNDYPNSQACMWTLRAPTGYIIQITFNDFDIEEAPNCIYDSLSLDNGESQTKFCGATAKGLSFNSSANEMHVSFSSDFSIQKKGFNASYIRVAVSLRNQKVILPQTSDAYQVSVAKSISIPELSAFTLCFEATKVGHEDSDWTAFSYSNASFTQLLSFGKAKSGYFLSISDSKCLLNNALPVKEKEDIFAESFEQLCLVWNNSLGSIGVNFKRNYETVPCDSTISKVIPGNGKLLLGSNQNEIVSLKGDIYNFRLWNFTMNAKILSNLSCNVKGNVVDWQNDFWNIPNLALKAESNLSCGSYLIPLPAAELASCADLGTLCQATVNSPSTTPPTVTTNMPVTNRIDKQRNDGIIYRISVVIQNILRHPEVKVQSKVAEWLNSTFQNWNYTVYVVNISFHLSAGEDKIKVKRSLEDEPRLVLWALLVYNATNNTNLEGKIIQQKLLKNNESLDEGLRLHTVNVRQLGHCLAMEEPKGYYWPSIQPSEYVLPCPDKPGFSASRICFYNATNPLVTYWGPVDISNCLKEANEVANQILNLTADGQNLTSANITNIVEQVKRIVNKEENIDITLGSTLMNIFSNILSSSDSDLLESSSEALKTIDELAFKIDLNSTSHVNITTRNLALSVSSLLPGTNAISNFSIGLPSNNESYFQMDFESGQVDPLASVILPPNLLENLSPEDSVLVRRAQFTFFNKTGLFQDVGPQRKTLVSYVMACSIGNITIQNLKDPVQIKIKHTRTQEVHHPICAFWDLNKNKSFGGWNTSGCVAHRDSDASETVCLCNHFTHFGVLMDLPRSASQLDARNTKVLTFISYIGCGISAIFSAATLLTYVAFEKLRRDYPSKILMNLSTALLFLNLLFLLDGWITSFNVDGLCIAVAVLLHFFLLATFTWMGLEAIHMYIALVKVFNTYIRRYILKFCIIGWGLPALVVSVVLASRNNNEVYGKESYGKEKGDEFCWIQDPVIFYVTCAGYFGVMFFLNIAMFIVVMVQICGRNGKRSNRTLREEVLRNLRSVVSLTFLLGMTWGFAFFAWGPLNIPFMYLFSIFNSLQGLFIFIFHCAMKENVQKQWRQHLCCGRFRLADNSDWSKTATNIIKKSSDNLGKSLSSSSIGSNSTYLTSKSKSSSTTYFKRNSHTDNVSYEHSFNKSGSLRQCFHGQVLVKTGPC
Chain of 320 GPCRs (Homo sapiens, UniProt Q9BZJ7) (Q9BZJ7 whole entry): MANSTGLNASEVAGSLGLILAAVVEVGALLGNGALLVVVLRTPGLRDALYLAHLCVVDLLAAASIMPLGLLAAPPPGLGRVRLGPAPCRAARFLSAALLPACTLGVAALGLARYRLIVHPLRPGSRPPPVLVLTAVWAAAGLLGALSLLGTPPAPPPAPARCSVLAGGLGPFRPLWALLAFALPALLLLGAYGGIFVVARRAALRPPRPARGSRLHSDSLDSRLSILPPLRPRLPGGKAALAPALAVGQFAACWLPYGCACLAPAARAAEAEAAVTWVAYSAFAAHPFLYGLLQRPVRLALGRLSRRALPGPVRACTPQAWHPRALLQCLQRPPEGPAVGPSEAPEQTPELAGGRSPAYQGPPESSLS
Chain of 320 GPCRs (Homo sapiens, UniProt Q8TDV2) (Q8TDV2 whole entry): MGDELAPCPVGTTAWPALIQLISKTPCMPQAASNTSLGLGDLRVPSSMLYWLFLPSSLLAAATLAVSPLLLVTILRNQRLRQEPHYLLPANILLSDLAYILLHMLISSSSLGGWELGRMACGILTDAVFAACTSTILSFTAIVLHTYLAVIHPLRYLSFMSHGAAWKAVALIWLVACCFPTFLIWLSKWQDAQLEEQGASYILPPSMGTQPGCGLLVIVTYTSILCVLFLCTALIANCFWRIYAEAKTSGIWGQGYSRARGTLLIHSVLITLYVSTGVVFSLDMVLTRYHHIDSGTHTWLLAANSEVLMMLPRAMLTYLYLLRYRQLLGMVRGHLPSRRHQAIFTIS
Chain of 320 GPCRs (Homo sapiens, UniProt P41968) (P41968 whole entry): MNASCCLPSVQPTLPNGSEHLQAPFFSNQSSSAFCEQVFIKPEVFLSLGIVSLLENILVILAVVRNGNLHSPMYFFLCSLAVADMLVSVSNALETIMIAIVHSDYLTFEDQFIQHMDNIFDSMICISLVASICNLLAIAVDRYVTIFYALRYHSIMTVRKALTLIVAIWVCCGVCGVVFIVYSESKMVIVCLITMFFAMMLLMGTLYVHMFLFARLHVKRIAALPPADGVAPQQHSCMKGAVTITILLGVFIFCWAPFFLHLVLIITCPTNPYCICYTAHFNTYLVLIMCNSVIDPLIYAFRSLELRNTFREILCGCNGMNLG
Chain of 320 GPCRs (Homo sapiens, UniProt O15303) (O15303 25-877): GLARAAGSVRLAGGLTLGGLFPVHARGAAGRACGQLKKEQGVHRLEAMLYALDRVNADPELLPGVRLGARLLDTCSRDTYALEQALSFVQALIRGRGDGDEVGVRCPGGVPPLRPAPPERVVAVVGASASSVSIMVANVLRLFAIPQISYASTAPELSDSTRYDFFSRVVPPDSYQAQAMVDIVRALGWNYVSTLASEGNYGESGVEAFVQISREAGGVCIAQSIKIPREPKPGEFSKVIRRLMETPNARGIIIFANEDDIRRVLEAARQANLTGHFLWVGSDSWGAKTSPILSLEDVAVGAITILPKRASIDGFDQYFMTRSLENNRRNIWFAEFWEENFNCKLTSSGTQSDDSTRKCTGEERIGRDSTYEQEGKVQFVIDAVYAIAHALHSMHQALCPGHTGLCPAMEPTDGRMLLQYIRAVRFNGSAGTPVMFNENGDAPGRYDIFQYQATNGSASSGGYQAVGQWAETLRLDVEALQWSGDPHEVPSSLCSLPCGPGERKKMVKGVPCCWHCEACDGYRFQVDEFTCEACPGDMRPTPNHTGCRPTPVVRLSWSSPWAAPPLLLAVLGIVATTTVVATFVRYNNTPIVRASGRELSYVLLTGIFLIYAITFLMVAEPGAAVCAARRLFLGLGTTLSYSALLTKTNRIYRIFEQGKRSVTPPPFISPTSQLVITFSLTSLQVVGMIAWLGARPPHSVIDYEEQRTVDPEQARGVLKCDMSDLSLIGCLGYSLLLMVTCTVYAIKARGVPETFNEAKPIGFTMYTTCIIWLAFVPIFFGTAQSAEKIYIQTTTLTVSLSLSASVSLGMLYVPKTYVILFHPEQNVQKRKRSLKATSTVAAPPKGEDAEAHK
Chain of 320 GPCRs (Homo sapiens, UniProt Q96LB0) (Q96LB0 whole entry): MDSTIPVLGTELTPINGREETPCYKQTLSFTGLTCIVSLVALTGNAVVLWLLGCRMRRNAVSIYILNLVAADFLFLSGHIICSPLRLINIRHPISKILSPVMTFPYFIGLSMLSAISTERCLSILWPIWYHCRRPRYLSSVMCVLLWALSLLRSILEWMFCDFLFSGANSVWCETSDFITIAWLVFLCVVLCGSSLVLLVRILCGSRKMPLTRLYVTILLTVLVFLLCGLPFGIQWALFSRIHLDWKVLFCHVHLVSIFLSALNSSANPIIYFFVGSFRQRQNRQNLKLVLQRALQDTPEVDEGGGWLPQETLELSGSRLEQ
Chain of 320 GPCRs (Homo sapiens, UniProt P43116) (P43116 whole entry): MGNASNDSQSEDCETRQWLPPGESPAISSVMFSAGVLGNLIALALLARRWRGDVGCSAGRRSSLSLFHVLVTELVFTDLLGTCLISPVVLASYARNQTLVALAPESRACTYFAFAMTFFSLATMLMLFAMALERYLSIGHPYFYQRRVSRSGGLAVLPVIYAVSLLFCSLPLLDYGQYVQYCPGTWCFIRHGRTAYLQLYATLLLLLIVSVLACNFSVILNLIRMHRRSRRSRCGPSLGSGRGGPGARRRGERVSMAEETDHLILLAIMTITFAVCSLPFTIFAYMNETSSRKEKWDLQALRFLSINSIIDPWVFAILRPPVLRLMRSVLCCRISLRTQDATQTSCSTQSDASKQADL

SMILES: O=C(O)C1CCC2(CC1)CC(Nc1ncnc3[nH]c4c(F)cccc4c13)C2 (stereo not shown) [Compound 74, OC(=O)C1CCC2(CC(C2)NC=3N=CN=C4NC=5C(F)=CC=CC5C34)CC1]
- RLU (Fold over Basal) [1]: 1.1 Fold over Basal and 1 Fold over Basal and 0.7 Fold over Basal and 0.6 Fold over Basal
- RLU (Fold over Basal) [2]: 1.8 Fold over Basal and 1.3 Fold over Basal
- RLU (Fold over Basal) [3]: 2.1 Fold over Basal and 1.6 Fold over Basal and 1.9 Fold over Basal and 2.4 Fold over Basal
- RLU (Fold over Basal) [4]: 0.7 Fold over Basal and 1.2 Fold over Basal and 0.9 Fold over Basal and 0.6 Fold over Basal
- RLU (Fold over Basal) [5]: 1.6 Fold over Basal and 0.9 Fold over Basal
- RLU (Fold over Basal) [6]: 0.5 Fold over Basal and 0.9 Fold over Basal and 0.6 Fold over Basal
- RLU (Fold over Basal) [7]: 1.6 Fold over Basal and 0.8 Fold over Basal and 1 Fold over Basal
- RLU (Fold over Basal) [8]: 1.1 Fold over Basal and 1 Fold over Basal and 1.4 Fold over Basal and 1.2 Fold over Basal
- RLU (Fold over Basal) [9]: 0.6 Fold over Basal and 0.5 Fold over Basal
- RLU (Fold over Basal) [10]: 0.6 Fold over Basal and 0.8 Fold over Basal
- RLU (Fold over Basal) [11]: 1 Fold over Basal and 1.4 Fold over Basal
- RLU (Fold over Basal) [12]: 1.2 Fold over Basal and 1.5 Fold over Basal and 1.6 Fold over Basal and 0.9 Fold over Basal
- RLU (Fold over Basal) [13]: 1.2 Fold over Basal and 0.7 Fold over Basal and 0.6 Fold over Basal and 1 Fold over Basal
- RLU (Fold over Basal) [14]: 0.9 Fold over Basal and 1.1 Fold over Basal and 0.8 Fold over Basal
- RLU (Fold over Basal) [15]: 2.1 Fold over Basal and 1.3 Fold over Basal and 1.7 Fold over Basal and 1.5 Fold over Basal
- RLU (Fold over Basal) [16]: 0.4 Fold over Basal and 0.7 Fold over Basal and 0.8 Fold over Basal
- RLU (Fold over Basal) [17]: 0.7 Fold over Basal and 1.1 Fold over Basal
- RLU (Fold over Basal) [18]: 0.8 Fold over Basal and 1.3 Fold over Basal and 0.9 Fold over Basal and 0.7 Fold over Basal
- RLU (Fold over Basal) [19]: 0.5 Fold over Basal and 1 Fold over Basal and 0.7 Fold over Basal and 0.8 Fold over Basal
- RLU (Fold over Basal) [20]: 1.2 Fold over Basal and 1.4 Fold over Basal and 1 Fold over Basal
- RLU (Fold over Basal) [21]: 0.5 Fold over Basal and 0.7 Fold over Basal
- RLU (Fold over Basal) [22]: 1.1 Fold over Basal and 1.2 Fold over Basal and 2 Fold over Basal and 1.3 Fold over Basal
- RLU (Fold over Basal) [23]: 0.9 Fold over Basal and 0.7 Fold over Basal and 1 Fold over Basal
- RLU (Fold over Basal) [24]: 0.4 Fold over Basal and 0.5 Fold over Basal and 0.6 Fold over Basal and 0.7 Fold over Basal
- RLU (Fold over Basal) [25]: 0.7 Fold over Basal and 1 Fold over Basal and 1.1 Fold over Basal
- RLU (Fold over Basal) [26]: 0.4 Fold over Basal and 0.6 Fold over Basal and 0.5 Fold over Basal
- RLU (Fold over Basal) [27]: 1 Fold over Basal and 1.1 Fold over Basal and 0.9 Fold over Basal
- RLU (Fold over Basal) [28]: 1.3 Fold over Basal and 0.7 Fold over Basal
- RLU (Fold over Basal) [29]: 1 Fold over Basal and 1.1 Fold over Basal and 0.9 Fold over Basal and 1.5 Fold over Basal
- RLU (Fold over Basal) [30]: 1.6 Fold over Basal and 1.9 Fold over Basal and 1.1 Fold over Basal and 1.2 Fold over Basal
- RLU (Fold over Basal) [31]: 0.9 Fold over Basal and 0.8 Fold over Basal and 1.1 Fold over Basal
- RLU (Fold over Basal) [32]: 0.8 Fold over Basal and 0.5 Fold over Basal and 1 Fold over Basal
- RLU (Fold over Basal) [33]: 0.7 Fold over Basal and 0.5 Fold over Basal
- RLU (Fold over Basal) [34]: 1 Fold over Basal and 1.4 Fold over Basal and 0.9 Fold over Basal
- RLU (Fold over Basal) [35]: 0.9 Fold over Basal and 1.1 Fold over Basal and 1.2 Fold over Basal
- RLU (Fold over Basal) [36]: 0.9 Fold over Basal and 0.7 Fold over Basal and 0.8 Fold over Basal
- RLU (Fold over Basal) [37]: 0.6 Fold over Basal and 0.5 Fold over Basal and 0.8 Fold over Basal
- RLU (Fold over Basal) [38]: 0.7 Fold over Basal and 0.9 Fold over Basal and 0.5 Fold over Basal
- RLU (Fold over Basal) [39]: 1 Fold over Basal and 0.8 Fold over Basal and 1.1 Fold over Basal
- RLU (Fold over Basal) [40]: 1.1 Fold over Basal and 1.2 Fold over Basal and 1 Fold over Basal and 0.6 Fold over Basal
- RLU (Fold over Basal) [41]: 0.4 Fold over Basal and 0.7 Fold over Basal and 0.8 Fold over Basal and 0.6 Fold over Basal
- RLU (Fold over Basal) [42]: 4 Fold over Basal and 2 Fold over Basal and 3.4 Fold over Basal and 3.2 Fold over Basal
- agonist activity in GPCR panel [43]: no agonist activity
